{"source": "patent US20100048543A1", "about": "“PYRIMIDINE COMPOUNDS HAVING TIES (TEK) INHIBITORY ACTIVITY” (ASTRAZENECA AB, priority 2005, published 2010)", "key": {"[1]": {"target": "T1, Tie2 receptor tyrosine kinase (Homo sapiens, UniProt Q02763)", "T1 construct": "consist of only the intracellular portion C-terminal portion of the respective receptor, within which is found the kinase domain; made in house; host or cells: baculovirus/Sf21 insect cells (or alternative equivalent), used as cleared lysate", "T1 sequence (Q02763 770-1124 limits assumed)": "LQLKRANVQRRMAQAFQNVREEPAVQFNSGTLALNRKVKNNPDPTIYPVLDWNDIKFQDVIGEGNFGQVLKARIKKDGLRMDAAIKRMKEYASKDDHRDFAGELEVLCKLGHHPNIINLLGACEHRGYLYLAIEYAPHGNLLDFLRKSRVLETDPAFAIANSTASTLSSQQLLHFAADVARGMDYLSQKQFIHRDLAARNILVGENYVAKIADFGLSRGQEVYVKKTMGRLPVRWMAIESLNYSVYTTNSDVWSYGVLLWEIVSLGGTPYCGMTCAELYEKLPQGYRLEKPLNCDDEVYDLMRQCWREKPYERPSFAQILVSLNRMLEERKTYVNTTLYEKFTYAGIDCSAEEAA", "experiment": "In vitro receptor tyrosine kinase inhibition assay, Test (a) (ELISA)", "format": "biochemical", "details": "recombinant human Tie2 kinase domain lysate, ATP 5 micromolar (or Km)", "method": "a. In vitro Receptor Tyrosine Kinase Inhibition Assay\nTo test for inhibition of Tie2 receptor tyrosine kinase, compounds are evaluated in a non-cell based protein kinase assay by their ability to inhibit the protein kinase enzyme phosphorylation of a tyrosine containing polypeptide substrate in an ELISA based microtitre plate assay. In this particular case, the assay was to determine the IC50, for three different recombinant human tyrosine kinases Tie2, KDR and Flt.\nTo facilitate production of the tyrosine kinases, recombinant receptor genes were produced using standard molecular biology cloning and mutagenesis techniques. These recombinant proteins fragments encoded within these genes consist of only the intracellular portion C-terminal portion of the respective receptor, within which is found the kinase domain. The recombinant genes encoding the kinase domain containing fragments were cloned and expressed in standard baculovirus/Sf21 system (or alternative equivalent).\nLysates were prepared from the host insect cells following protein expression by treatment with ice-cold lysis buffer (20 mM N-2-hydroxyethylpiperizine-N′-2-ethanesulphonic acid (HEPES) pH7.5, 150 mM NaCl, 10% glycerol, 1% Triton X-100, 1.5 mM MgCl2, 1 mM ethylene glycol-bis (β-aminoethyl ether) N′,N′,N′,N′-tetraacetic acid (EGTA), plus protease inhibitors and then cleared by centrifugation. Tie2, KDR and Flt1 lysates were stored in aliquots at −80° C.\nConstitutive kinase activity of these recombinant proteins was determined by their ability to phosphorylate a synthetic peptide (made up of a random co-polymer of Glutamic Acid, Alanine and Tyrosine in the ratio of 6:3:1). Specifically, Nunc Maxisorb™ 96-well immunoplates were coated with 100 microlitres of synthetic peptide Sigma P3899 (1 mg/ml stock solution in PBS diluted 1:500 in PBS prior to plate coating) and incubated at 4° C. overnight. Plates were washed in 50 mM HEPES pH 7.4 at room temperature to remove any excess unbound synthetic peptide.\nThe immobilised phospho-peptide product of the reaction was detected by immunological methods. Firstly, plates were incubated for 4 hours at room temperature with murine monoclonal anti-phosphotyrosin-HRP (Horseradish Peroxidase) conjugated antibodies (4G10 from Upstate Biotechnology UBI 16-105). Following extensive washing with PBS-T, HRP activity in each well of the plate was measured colorimetrically using 22′-Azino-di-[3-ethylbenzthiazoline sulfonate (6)]diammonium salt crystals ABTS (Sigma P4922—prepared as per manufactures instructions) as a substrate incubated for 30-45 minutes to allow colour development, before 100 ul of 1M H2SO4 was added to stop the reaction.\nQuantification of colour development and thus enzyme activity was achieved by the measurement of absorbance at 405 nm on a Molecular Devices ThermoMax microplate reader. Kinase inhibition for a given compound was expressed as an IC50 value. This was determined by calculation of the concentration of compound that was required to give 50% inhibition of phosphorylation in this assay. The range of phosphorylation was calculated from the positive (vehicle plus ATP) and negative (vehicle minus ATP) control values."}, "Tie2 receptor": {"target": "T2, Tie2 receptor (Homo sapiens, UniProt Q02763)", "T2 construct": "one can use natural cell lines or primary cells which are known to express the receptor of choice; endogenous in cells; host or cells: EA.hy926/B3 cells (HUVEC named as an alternative)", "T2 sequence (Q02763 23-1124)": "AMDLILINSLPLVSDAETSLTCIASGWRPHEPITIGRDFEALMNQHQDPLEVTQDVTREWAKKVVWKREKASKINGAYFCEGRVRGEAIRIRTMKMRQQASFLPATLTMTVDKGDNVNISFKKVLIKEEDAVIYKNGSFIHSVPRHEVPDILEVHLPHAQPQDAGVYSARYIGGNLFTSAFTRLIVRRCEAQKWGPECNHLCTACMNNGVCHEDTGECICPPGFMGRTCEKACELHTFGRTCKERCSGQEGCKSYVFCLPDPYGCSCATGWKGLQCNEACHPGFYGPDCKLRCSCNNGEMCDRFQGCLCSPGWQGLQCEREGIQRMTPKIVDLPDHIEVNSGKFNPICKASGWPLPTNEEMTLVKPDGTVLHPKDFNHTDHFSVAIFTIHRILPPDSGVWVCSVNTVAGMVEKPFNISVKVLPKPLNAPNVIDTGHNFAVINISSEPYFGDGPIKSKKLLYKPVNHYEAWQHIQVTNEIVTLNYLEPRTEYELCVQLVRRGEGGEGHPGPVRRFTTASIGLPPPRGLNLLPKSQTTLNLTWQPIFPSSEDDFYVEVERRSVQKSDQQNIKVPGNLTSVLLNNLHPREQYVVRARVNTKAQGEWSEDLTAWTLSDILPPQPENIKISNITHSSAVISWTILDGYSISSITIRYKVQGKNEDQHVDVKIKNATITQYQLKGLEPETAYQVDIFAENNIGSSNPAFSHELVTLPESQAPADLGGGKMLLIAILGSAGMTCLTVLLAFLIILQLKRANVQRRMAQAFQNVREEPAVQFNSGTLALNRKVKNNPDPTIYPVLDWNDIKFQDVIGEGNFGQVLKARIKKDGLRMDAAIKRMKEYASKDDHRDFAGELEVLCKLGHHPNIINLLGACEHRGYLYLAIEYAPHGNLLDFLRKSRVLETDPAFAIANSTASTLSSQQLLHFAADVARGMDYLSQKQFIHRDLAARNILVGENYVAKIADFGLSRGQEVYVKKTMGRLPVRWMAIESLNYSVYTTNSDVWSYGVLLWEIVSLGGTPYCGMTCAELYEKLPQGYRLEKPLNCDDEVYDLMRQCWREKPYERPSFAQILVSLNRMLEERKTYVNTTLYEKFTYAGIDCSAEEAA", "experiment": "Cellular Tie2 autophosphorylation assay, Test (b)", "format": "cell-based", "details": "Ang1 ligand stimulated whole cells (e.g. EA.hy926/B3), immunoprecipitation/western blot; read-out: IC50 (μM) Test (b): Inhibition of autophosphorylation of Tie2 receptor tyrosine kinase", "from_the_text": "b. Cellular Tie2 Autophosphorylation Assay\nThis assay is based on measuring the ability of compounds to inhibit autophosphorylation of the Tie2 receptor which normally leads to the production of “activated” receptor that in turn initiates the particular signal transduction pathways associated with the receptor function.\nAutophosphorylation can be achieved by a number of means. It is known that expression of recombinant kinase domains in baculoviral systems can lead to the production of phosphorylated and activated receptor. It is also reported that over expression of receptors in recombinant cell lines can itself lead to receptor autophosphorylation in the absence of the ligand (Heldin C-H. 1995 Cell: 80, 213-223; Blume-J. P, Hunter T. 2001 Nature: 411, 355-65). Furthermore, there are numerous literature examples in which chimaeric receptors have been constructed. In these cases the natural, external cell surface domain of the receptor has been replaced with that of a domain which is known to be readily dimerised via the addition of the appropriate ligand (e.g. TrkA-Tie2/NGF ligand (Marron, M. B., et al., 2000 Journal of Biological Chemistry: 275:39741-39746) or C-fins-Tie-1/CSF-1 ligand (Kontos, C. D., et al., 2002 Molecular and Cellular Biology: 22, 1704-1713). Thus when the chimaeric receptor expressed in a host cell line and the respective ligand is added, this induces autophosphorylation of the chimeric receptor's kinase domain. This approach has the advantage of often allowing a known (and often easily obtained) ligand to be used instead of having to identify and isolate the natural ligand for each receptor of interest.\nNaturally if the ligand is available one can use natural cell lines or primary cells which are known to express the receptor of choice and simply stimulate with ligand to achieve ligand induced phosphorylation. The ability of compounds to inhibit autophosphorylation of the Tie2 receptor, which is expressed for example in EA.hy926/B3 cells (supplied by J. McLean/B. Tuchi, Univ. of N. Carolina at Chapel Hill, CB-4100, 300 Bynum Hall, Chapel Hill, N.C. 27599-41000, USA) or primary HUVEC (human umbilical vein endothelial cells—available from various commercial sources), can measured by this assay.\nNatural Ang1 ligand can be isolated using standard purification technology from either tumour cell supernatants or alternatively the Ang1 gene can be cloned and expressed recombinantly using stand molecular biology techniques and expression systems. In this case one can either attempt to produce the ligand either in its native state or as recombinant protein which for example may have been genetically engineered to contain additional of purification tags (eg. polyhistidine peptides, antibody Fc domains) to facilitate the process.\nUsing the ligand stimulation of either EA.hy926/B3 or HUVEC cellular Tie2 receptor as the example, a Ang1 ligand stimulated cellular receptor phosphorylation assay can be constructed which can be used to analyse to determine the potential of compounds to inhibit this process. For example EA.hy926/B3 cells were grown in the appropriate tissue culture media plus 10% foetal calf serum (FCS) for two days in 6 well plates starting with an initial seeding density of 5×10^5 cells/well. On the third day the cells were serum starved for a total of 2 hours by replacing the previous media with media containing only 1% FCS. After 1 hour 40 minutes of serum starvation the media was removed and replace with 1 ml of the test compound dilutions (compound dilutions made in serum starvation media yet keeping the DMSO concentration below 0.8%). After 1.5 hours of serum starvation orthovanidate was added to a final concentration of 0.1 mM for the final 10 minutes of serum starvation. […]"}}}
{"smiles": "Cc1ccc(CNC(=O)Nc2cccc(C#Cc3cnc(N)nc3)c2)o1", "note": "[Example 6, N-{3-[(2-aminopyrimidin-5-yl)ethynyl]phenyl}-N′-[(5-methyl-2-furyl)methyl]urea]", "values": [{"measurement": "IC50", "setting": "[1]", "value": 20, "unit": "µM"}, {"measurement": "IC50", "setting": "Tie2 receptor", "value": 1.7, "unit": "µM"}]}
{"smiles": "Nc1ncc(C#Cc2cccc(NC(=O)NC(CCO)c3ccccc3)c2)cn1", "note": "(stereo not drawn) [Example 12, N-{3-[(2-aminopyrimidin-5-yl)ethynyl]phenyl}-N′-(3-hydroxy-1-phenylpropyl)urea]", "values": [{"measurement": "IC50", "setting": "[1]", "value": 25, "unit": "µM"}, {"measurement": "IC50", "setting": "Tie2 receptor", "value": 1.3, "unit": "µM"}]}
{"smiles": "Nc1ncnc(N)c1C#Cc1cccc(NC(=O)NCC2CCCO2)c1", "note": "(stereo not drawn) [Example 47, N-{3-[(4,6-diaminopyrimidin-5-yl)ethynyl]phenyl}-N′-(tetrahydrofuran-2-ylmethyl)urea]", "values": [{"measurement": "IC50", "setting": "[1]", "value": 1.5, "unit": "µM"}, {"measurement": "IC50", "setting": "Tie2 receptor", "value": 1.9, "unit": "µM"}]}
{"smiles": "Cc1conc1CNC(=O)Nc1cccc(C#Cc2c(N)ncnc2N)c1", "note": "[Example 50, N-{3-[(4,6-diaminopyrimidin-5-yl)ethynyl]phenyl}-N′-[(4-methylisoxazol-3-yl)methyl]urea]", "values": [{"measurement": "IC50", "setting": "[1]", "value": 9, "unit": "µM"}, {"measurement": "IC50", "setting": "Tie2 receptor", "value": 3.6, "unit": "µM"}]}
{"smiles": "Cc1ccc(CNC(=O)Nc2cccc(C#Cc3cnc(NCCCN4CCCCC4)nc3)c2)o1", "note": "[Example 14, N-[(5-methyl-2-furyl)methyl]-N′-[3-({2-[(3-piperidin-1-ylpropyl)amino]pyrimidin-5-yl}ethynyl)phenyl]urea]", "values": [{"measurement": "IC50", "setting": "[1]", "value": 20, "unit": "µM"}, {"measurement": "IC50", "setting": "Tie2 receptor", "value": 0.38, "unit": "µM"}]}
{"smiles": "Nc1ncnc(N)c1C#Cc1cccc(NC(=O)NCc2cccnc2)c1", "note": "[Example 45, N-{3-[(4,6-diaminopyrimidin-5-yl)ethynyl]phenyl}-N′-(pyridin-3-ylmethyl)urea]", "values": [{"measurement": "IC50", "setting": "[1]", "value": 3.3, "unit": "µM"}, {"measurement": "IC50", "setting": "Tie2 receptor", "value": 0.2, "unit": "µM"}]}
